In patent US20230255965A1, “TRPV4 INHIBITOR AS A THERAPEUTIC AGENT FOR OCULAR DISEASES” (RaQualia Pharma Inc., priority 2020, published 2023):
Read-outs that look alike come from different tables or passages of the source.

Columns and labels:
[1] = tested on: mouse retinal vein occlusion model; experiment: Histological evaluation for retinal vein occlusion: thickness of the retinal inner nuclear layer (INL), HE staining; type: in vivo; details: single intravitreal administration of 2 μL, 24 hours after irradiation, vs vehicle
Experimental: (§1) Eight-week-old male ddY mice are anesthetized with a mixture of ketamine (120 mg/kg) and xylazine (6 mg/kg) administered intramuscularly. After that, 0.15 mL of a photosensitizer, rose bengal (20 mg/kg) is administered into the tail vein, and a laser (wavelength 532 nm) is irradiated into a vein three optic disc diameters away from the optic disc in the mouse right eye to occlude the retinal vein and form a pathological condition. Laser irradiation is performed using an attachment of Micron4 (Phoenix Research lab., CA, USA), which is a fundus imaging device, under prescribed laser irradiation conditions (wavelength 532 nm, spot size 50 μm, irradiation time 5 seconds, laser power 50 mW). The vein is occluded by 10 to 15 laser irradiations per vein.
Immediately after laser irradiation, a TRPV4 inhibitor is administered, and 24 hours after irradiation, the eyeball is removed and a retinal histopathology specimen is prepared. Hematoxylin-eosin (HE) staining is performed to measure the thickness of the retinal inner nuclear layer (INL). Other stains (e.g., TUNEL stain) may be used for analysis as needed.
Administration of a TRPV4 inhibitor is performed by intravitreal administration (local administration). The conditions of the solution for administration are investigated in advance, and the concentration for intravitreal administration is determined. However, if the conditions for systemic administration are met, systemic administration may be included in the group composition. For intravitreal administration, the dosage should be 2 μL/eye as a single dose. For systemic administration, the number of doses and dosage should be determined after a separate consideration.
After a single intravitreal administration of 2 μL of a TRPV4 inhibitor (25 μM, 250 μM) or vehicle, whether the TRPV4 inhibitor restores the retinal edema is evaluated.

[2] = tested on: mouse model of retinal vein occlusion; experiment: Late drug administration 7 days after vascular occlusion: suppression of retinal thinning (OCT); type: in vivo; details: 250 μM, 2 μL intravitreal 7 days after occlusion, measured 1 day after administration
Experimental: as §1
(§2) Seven days after vascular occlusion, the retina is damaged, the retinal layer structure is thinned, the blood flow is reduced, and a retinal nonperfusion area exists. Whether the TRPV4 inhibitor restores this condition is evaluated. […]
(§3) Seven days after vascular occlusion, 2 μL of a TRPV4 inhibitor (250 μM) or vehicle is administered intravitreally. One day after administration (8 days after occlusion), the retinal layers are imaged using optical coherence tomography (OCT) and intraocular blood flow is measured using laser speckle.

[3] = tested on: mouse model of retinal vein occlusion; experiment: Late drug administration 7 days after vascular occlusion: retinal nonperfusion area (FITC-dextran flat mount); type: in vivo; details: 250 μM, 2 μL intravitreal 7 days after occlusion, 1 day after administration
Experimental: as §1, §2
as §3, with “speckle. […]” for “speckle.”

[4] = tested on: tumor necrosis factor alpha (TNFα); experiment: Expression of TNFα in retina of mouse retinal vein occlusion model by Western blotting; type: in vivo; details: 250 μM, 2 μL intravitreal immediately after vascular occlusion, retina 1 day after occlusion
Experimental: as §1
Using the same method as in Example 3, the retinal veins of mice are occluded by laser irradiation into the veins of the eye.
Immediately after laser irradiation, 2 μL of a TRPV4 inhibitor (250 μM) is administered intravitreally. One day after vascular occlusion, the mice are euthanized by cervical dislocation, and then retinas isolated from removed eyeballs are evaluated by Western blotting.

[5] = tested on: human retinal microvascular endothelial cells (HRMECs); experiment: Cell permeability using human retinal microvascular endothelial cells, transendothelial electrical resistance (TEER); type: cell-based; details: for inhibition at 10 µM: Homo sapiens, HRMEC, read-out: inhibition rate of increased vascular permeability (TEER); for change of transepithelial electrical resistance (TEER values): 24 hours after addition
Experimental: Human retinal microvascular endothelial cells (HRMECs) are seeded onto Transwell inserts at a density of 1.0×10^5 cells/mL. The medium is changed every other day and the cells are cultured for 7 days. Transendothelial electrical resistance (TEER) is measured using a measurement device and cup-shaped electrode (Endohm-6; World Precision Instruments, USA). One hour after the addition of a TRPV4 inhibitor (final concentration: 1 μM, 10 μM) or buffer for evaluation to cells, VEGF (final concentration: 10 ng/mL) or GSK1016790A, a TRPV4 agonist (final concentration: 10 nM) is added, and 24 hours after the addition, transepithelial electrical resistance values (TEER values) is measured 24 hours after addition. The transepithelial electrical resistance value (TEER value) is an index for evaluating barrier functions such as tight junctions of cells.

[6] = tested on: mouse model of retinal vein occlusion; experiment: Late drug administration 7 days after vascular occlusion: ocular blood flow (laser speckle); type: in vivo; details: 250 μM, 2 μL intravitreal 7 days after occlusion, measured 1 day after administration
Experimental: as §1, §2, §3

[7] = tested on: diabetic model mice; details: cited from earlier work; for retinal edema: single intravitreal administration
[8] = final concentration 10 μM, compared to VEGF-added group, 24 hours

Molecule: O=C([C@H](O)c1cccc(Cl)c1)N1CCc2nc(C3(c4ccccc4)CC3)[nH]c(=O)c2C1 [Compound A, (R)-6-(2-(3-chlorophenyl)-2-hydroxyacetyl)-2-(1-phenylcyclopropyl)-5,6,7,8-tetrahydropyrido[4,3-d]pyrimidin-4(3H)-one]
- inhibition rate of the increase in the thickness of the retinal inner nuclear layer (INL) ([1]; 25 μM): 40%
- inhibition rate of the increase in the thickness of the retinal inner nuclear layer (INL) ([1]; 250 μM): 76%
- inhibition of retinal thinning [2]: ≥ 30%
- inhibition rate of nonperfusion areas in the retina [3]: ≥ 50%
- inhibition rate of the increase in TNF expression [4]: ≥ 50%
- inhibition rate of increased vascular permeability (TEER) ([5]; final concentration 1 μM, 10 μM, VEGF 10 ng/mL or GSK1016790A 10 nM added, 24 hours): ≥ 50%
- improvement of ocular blood flow reduction rate [6]: ≥ 30%

Molecule: CC(C)(O)c1cnc(N2C[C@@]3(CCC[C@](C)(Cn4cnc5ccc(C#N)cc54)C3)OC2=O)cn1 [Compound B, 1-(((5S,7S)-3-(5-(2-hydroxypropan-2-yl)pyrazin-2-yl)-7-methyl-2-oxo-1-oxa-3-azaspiro[4.5]decan-7-yl)methyl)-1H-benzo[d]imidazole-6-carbonitrile]
- inhibition rate of the increase in the thickness of the retinal inner nuclear layer (INL) ([1]; 250 μM): 62%
- inhibition at 10 µM ([5]; 24 h): ≥ 30%

Molecule: O=C(NC1(c2ccccc2)CC1)c1c(CN2CCC(N3CCCCC3)CC2)c(-c2cccc(C(F)(F)F)c2)nc2cc(Br)ccc12 [Compound C, 3-(1,4′-bipiperidin-1′-ylmethyl)-7-bromo-N-(1-phenylcyclopropyl)-2-[3-(trifluoromethyl)phenyl]-4-quinolinecarboxamide]
- inhibition rate of the increase in the thickness of the retinal inner nuclear layer (INL) ([1]; 250 μM): 59%
- inhibition at 10 µM [5, 8]: ≥ 30%
- retinal thinning ([7]; Non-Patent Literature 11): not suppressed
- retinal edema ([7]; Non-Patent Literature 11): it does not
- retinal edema ([7]; Patent Literature 2): suppresses retinal edema

Molecule: Cc1c(C(=O)Nc2cccc(C(F)(F)F)c2)cc(-c2ccccc2)n1CCCN1CCOCC1 [Compound D, N-(3-(trifluoromethyl)phenyl)-2-methyl-1-(3-morpholinopropyl)-5-phenyl-1H-pyrrole-3-carboxamide]
- inhibition rate of the increase in the thickness of the retinal inner nuclear layer (INL) ([1]; 250 μM): 64%
- inhibition at 10 µM [5, 8]: ≥ 30%

Molecule: CC(C)C[C@H](NC(=O)c1cc2ccccc2s1)C(=O)N1CCN(C(=O)[C@H](CO)NS(=O)(=O)c2ccc(Cl)cc2Cl)CC1 [GSK1016790A]
- change of transepithelial electrical resistance (TEER values) ([5]; GSK1016790A final concentration 10 nM): decreases transepithelial electrical resistance

Molecule: VEGF
- change of transepithelial electrical resistance (TEER values) ([5]; VEGF final concentration 10 ng/mL): decreases transepithelial electrical resistance
